# From patent US4226885A, “Guanylhydrazones and medicaments containing them” (Choay S.A., priority 1977, dated 1980)
# Like-named read-outs stand apart in the source and are kept apart here.
# Columns and labels:
# [1] = system: Lipidium sativum; experiment: Inhibition of the growth of the root meristem of Lipidium sativum (vegetable cells); assay type: in vivo; conditions: for inhibiting activity (root growth, in words): Lipidium sativum test
# Description: The test of the inhibition of the growth of the root meristem of Lipidium sativum was used, which test is used to evaluate the cytostatic action of series of drugs. It consists in placing germinated grains of Lipidium sativum in 15 ml. of aqueous solution containing 1% of methyl cellulose, in which the guanyl hydrazones are placed in suspension.
# After leaving in darkness for 24 hours at the temperature of 27° C., the elongation of the root in comparison with that of a control batch (Li Lipidium sativum grain in methyl cellulose medium) is determined.
# The validity of the linear model was evaluated with the aid of test F: [formula]
# In the example supplied, for the calculation of the confidence interval for α=0.05, one finds:
# that is to say one has five chances per hundred, if one repeats another series of measurements, of finding a pI 50 outside this limit.
# [2] = system: fibro-sarcomas induced by methyl cholanthrene, tumour cells in culture; experiment: Tumour culture: inhibition of multiplication of methyl cholanthrene-induced fibro-sarcoma cells in vitro; assay type: cell-based; conditions: Rattus norvegicus, read-out: percentage of inhibition in comparison with the control; heading: percentage of inhibition in comparison with the control; B3 tumour culture, 10^-3 M
# [3] = system: platelet aggregation; experiment: Platelet anti-aggregant action (BORN's method); assay type: cell-based, human or rabbit
# Description: The determination of the platelet aggregability was effected according to BORN's method, using a LABINTEC aggregometer.
# Firstly a platelet-rich plasma (or PRP) and next a platelet-poor plasma (or PPP or PDP) are prepared from human blood or rabbit's blood, and the apparatus is calibrated.
# Then the aggregating power of the plasma (PRP) is determined in relation to the PDP in the presence and in the absence of guanyl hydrazone. Thus it is possible to determine the percentage of inhibition of platelet aggregation as a function of the concentration. The curves obtained permit of determining a pI 50. […]
# [4] = target: rat liver monoaminoxydase; experiment: I.M.A.O. activity: inhibition of rat liver monoaminoxydase (spectrophotometric, kynuramine as substratum); assay type: biochemical; conditions: 50% inhibition
# Description: The inhibiting activity of the envisaged guanyl hydrazones in relation to rat liver monoaminoxydase was determined by means of a spectrophotometric method, using kynuramine as substratum.
# The I.M.A.O. activity was determined for various concentrations of guanyl hydrazone. The concentrations for which one obtains 50% inhibition relate to the pI 50, which is calculated as follows: […]
# For each concentration about ten experiments are carried out, from which the mean activity Yi is determined. Only concentrations giving a Yi between 15 and 85% of activity are retained.
# Assume N concentrations Ci retained; to each Ci there correspond a certain number ni of experiments and a mean activity Yi.
# Assume in all NT=Σni experiments.
# (a) The equation of the straight line Yi =f (Ci) is calculated by the method of least squares.
# To this straight line there are attached different statistic tests to express its validity, as straight line only.
# Then the corresponding concentration is deduced for Y=50%.
# (b) Statistical calculations permit evaluation of the legitimacy of the linear model. These calculations take account of all the points, that is to say NT experiments, whereas the straight line is determined from the mean activities only, which means that these calculations take account of the dispersion which affects every average.
# (c) Calculation of the confidence interval for α=0.05.
# The pI50 s of the compounds 1 to 7 appearing in Table I above were calculated by application of the method as just described; they have been listed in Table II below: […]
# [5] = system: fibro-sarcomas induced by methyl cholanthrene, tumour cells in culture; experiment: Tumour culture: inhibition of multiplication of methyl cholanthrene-induced fibro-sarcoma cells in vitro; assay type: cell-based; conditions: Rattus norvegicus; for inhibition at 10 µM: 10^-5 molar; for inhibition at 1 µM: 10^-6 molar
# Description: (§1) A supplementary study of the activity of these products upon the inhibition of growth of animal cells was effected by tumour culture. On fibro-sarcomas induced by methyl cholanthrene (O. Flandre et coll. C.R. Jour. biol. 1966. 160 152) the products were tested: upon tumour cells in culture "in vitro" and upon treated rats.
# 1. upon tumour cells in culture "in vitro" the results of the tested products are reported in Table IV below, which expresses the cellular count at the 72nd hour after sub-culture, in the presence of the substances to be studied.
# The results are expressed in percentage of diminution of the number of cells in comparison with the control.
# The determinations were effected with the products at three molar concentrations: 10^-4, 10^-5 and 10^-6.
# This concerns fibro-sarcomas induced by methyl cholanthrene according to a technique described by O. FLANDRE, I. CIURANA, J. SECCHI and M. DAMON: Reports of the Sittings of the Biology Society, Volume 160, No. 1, 1966, page 152.
# The products can be tested either upon tumour cells cultivated in vitro, or upon the rat treated by tumour cell injections either in situ or by intraperitoneal injection.
# The preliminary experiments carried out with the substances according to the invention, tested on tumour cells cultivated in vitro, disclose a retardation of the cellular multiplication.
# [6] = system: fibro-sarcoma induced by methyl cholanthrene; experiment: Development of a fibro-sarcoma induced by methyl cholanthrene in vivo in the rat; conditions: daily 50 mg./kg in two doses, over three months, vs untreated rats
# Description: as §1
# 2. Inhibiting action upon the development of a fibro-sarcoma induced by methyl cholanthrene "in vivo" in the rat.
# [7] = system: rat embryo cultures (muscle fragment); experiment: Culture in explants: mitotic index of rat embryo cultures; assay type: cell-based
# Description: This concerns rat embryo cultures kept for at least 6 months (muscle fragment). The explants are placed in culture in plasma coagulum (cock plasma). The cultures are fed with nutrient medium (Hanx+embryonary extract+decomplemented calf foetus serum). 24 hours after placing in plasma coagulum, the product to be tested is added at different dilutions. The cultures are examined on the 4th day and the counting of the number of mitoses is effected in the growth zone of the explants. The percentage of each of the phases of the mitosis is determined for the whole (mitotic index).
# [8] = system: Rat fibroblast cultures; experiment: Action upon cultures of trypsinised fibroblasts; assay type: cell-based; conditions: read-out: percentage of inhibition in comparison with the control, heading: percentage of inhibition in comparison with the control, 10^-4 M, 48 and 72 hours
# Description: Rat fibroblast cultures are concerned and the strains have been maintained for several years.
# For single-layer cultivation in Roux flasks, Trypsinisation at 0.25% detaches the cells from the flask on the one hand and from one another on the other hand.
# The cells are distributed in lamellated tubes at the rate of 250,000 cells per ml., where they are deposited.
# The products to be tested are introduced at different dilutions, and left to act for 48 and 72 hours.
# Next, the counting of the cells is effected (10 fields for 5 blades) and the results obtained are compared with control tumours which have not received the product to be tested.
# [9] = phenoxyacetic acid corresponding to the numbered guanyl hydrazone, root growth, read-out: Corresponding phenoxyacetic acid pI 50 (converted)
# [10] = platelet-rich plasma, human blood or rabbit's blood, Table V, read-out: PI50 (platelet aggregation) (converted)
# [11] = 50% inhibition of root growth, 24 hours, 27° C., darkness, read-out: pI 50 (guanyl hydrazones) (converted)
# [12] = 72 h, 10^-4 molar, 72nd hour after sub-culture, read-out: percentage of diminution of the number of cells in comparison with the control
# [13] = 72 h, 72nd hour after sub-culture, read-out: percentage of diminution of the number of cells in comparison with the control
# [14] = concentration of 10^-4 mol, read-out: retardation of the cellular multiplication
"IC50 [3, 10]",pI 50 [4],Structure (SMILES),"IC50 [1, 11]","inhibition at 100 µM [5, 12]","inhibition at 10 µM [5, 13]","inhibition at 1 µM [5, 13]","inhibiting activity (root growth, in words) [1]",other results
1200 µM,4.90,N=C(N)NN=CCOc1ccccc1 [Compound 1],692 µM,15.8%,7.89%,5.26%,,inhibition at 1000 µM [2]: ~25%
603 µM,4.94,"N=C(N)NN=CCOc1ccccc1Cl [Compound 2, o-chlorophenoxy acetaldehyde guanyl hydrazone]",162 µM,15.8%,13.2%,7.89%,,
1100 µM,4.94,"COc1ccccc1OCC=NNC(=N)N [Compound 5, o-methoxy phenoxy acetaldehyde guanyl hydrazone]",224 µM,5.26%,2.63%,0%,,
525 µM,,Cc1ccccc1OCC=NNC(=N)N [Compound 8],38.9 µM,10.7%,7.89%,0%,great inhibiting activity,
692 µM,,Cc1cccc(OCC=NNC(=N)N)c1 [Compound 9],26.3 µM,32.1%,13.2%,10.5%,great inhibiting activity,"inhibition at 100 µM [5, 14]: > 30%"
813 µM,,"Cc1ccc(OCC=NNC(=N)N)cc1 [Compound 10, p-methyl phenoxy acetaldehyde guanyl hydrazone]",58.9 µM,25%,23.7%,0%,,

# The next lines start with the compound.
Structure (SMILES),"IC50 [3, 10]",pI 50 [4],"IC50 [1, 11]","inhibition at 100 µM [5, 12]","inhibition at 10 µM [5, 13]","inhibition at 1 µM [5, 13]","inhibiting activity (root growth, in words) [1]",other results
"O=C(O)COc1ccccc1 [1 (corresponding phenoxyacetic acid), reference compound]",,,,,,,,"IC50 [1, 9]: 631 µM"
"O=C(O)COc1ccccc1Cl [2 (corresponding phenoxyacetic acid), reference compound]",,,,,,,,"IC50 [1, 9]: 112 µM"
"Cc1ccccc1OCC(=O)O [8 (corresponding phenoxyacetic acid), reference compound]",,,,,,,,"IC50 [1, 9]: 11 µM"
N=C(N)NN=CCOc1cccc(Cl)c1 [Compound 3],490 µM,4.70,33.9 µM,31.6%,26.3%,0%,great inhibiting activity,"inhibition at 100 µM [5, 14]: > 30%"
COc1cccc(OCC=NNC(=N)N)c1 [Compound 6],,5.16,191 µM,18.4%,12.6%,0%,,
COc1ccc(OCC=NNC(=N)N)cc1 [Compound 7],1380 µM,4.50,102 µM,15.8%,15.3%,0%,,
CC(C)c1ccccc1OCC=NNC(=N)N [Compound 11],,,39.8 µM,78.6%,42.1%,18.4%,great inhibiting activity,"development of the tumours (weight estimations) [6]: clearly retarded; mitotic index ([7]; 4th day, control culture 2.5%): 1.9%; number of mitoses at the metaphase level ([7]; vs control culture): significant reduction of the number of mitoses at the metaphase level; inhibition at 100 µM [8]: ~100%; inhibition at 100 µM [5, 14]: > 30%"
N=C(N)NN=CCOc1ccc(Br)cc1 [Compound 12],562 µM,,2.88 µM,57.1%,40.4%,0%,great inhibiting activity,"development of the tumours (weight estimations) [6]: clearly retarded; inhibition at 100 µM [5, 14]: > 30%"
N=C(N)NN=CCOc1ccc(F)cc1 [Compound 13],977 µM,,,,,,,
"CC(=O)Oc1ccccc1C(=O)O [Lysine acetylsalicylate, reference compound]",,,,,,,,"IC50 ([3]; Platelet, read-out: PI50 (platelet aggregation)): 51300 µM"
